From patent US9969771B2, “Tetrapeptide having effect of inhibiting VEGF-induced angiogenesis and use thereof” (AVIXGEN INC., priority 2015, dated 2018)
Where a SMILES comes first, the peptide text is derived from it. Where no end group is shown, it is not given here. The star is where a group is joined. FITC = O=C1OC2(c3ccc(O)cc3Oc3cc(O)ccc32)c2ccc(NC(=S)*)cc21

What was measured:
HUVECs [1] = assay: VEGF-induced HUVEC proliferation, [3H]-thymidine incorporation assay; assay type: cell-based, human; conditions: for IC50: 3 h; for inhibition of VEGF-induced HUVEC proliferation: VEGF 10 ng/ml, [3H]-thymidine incorporation
Method: Human umbilical vein endothelial cells (HUVECs) were cultured in M199 medium, and during experiments, the cells were always used at passages 2 to 7. Meanwhile, mouse melanoma cells (B16F1 and B16F10) and human colorectal tumor cells (HCT116) were cultured in RPMI media supplemented with 10% FBS, 1 mM sodium pyruvate, 10 mM 4-(2-hydroxyethyl)-1-piperazineethanesulfonic acid and 100 U/ml penicillin-streptomycin, and human multiple myeloma cells (IM-9 and RPMI 8226) were cultured in RPMI-1640 media. All of the cells were cultured at 37° C. with 5% CO2 in a humidified incubator.
Angiogenic activity was determined by measuring cell proliferation, migration and tube formation. HUVEC proliferation was analyzed by a [3H]-thymidine incorporation assay. The HUVECs were seeded in a 24-well plate coated with gelatin at a density of 2×10^4 cells/well. […] […] […] 3H-labeled polymer DNA was evaluated with a liquid scintillation counter.

ERK = assay: Western blot, ERK phosphorylation in HUVECs; assay type: cell-based, human; conditions: VEGF / VEGF-A stimulated
Method: Cells were lyzed in RIPA buffer, and 50 μg of proteins were isolated by SDS-PAGE and then transferred to a PVDF membrane. The membrane was reacted with an antibody with respect to a target protein for 2 hours. The membrane was washed twice and reacted with a horseradish peroxidase-conjugated antibody, and then an amount of the target proteins was assessed with an enhanced chemiluminescence system.

zebrafish = assay: Zebrafish angiogenesis assay; assay type: in vivo; conditions: zebrafish embryo
Method: An adult zebrafish and an embryo were grown and maintained in a standard laboratory environment, and a zebrafish experiment was conducted according to the protocols approved by the animal ethics committee of Chungnam National University. To analyze angiogenesis, at 48 hours post fertilization (hpf), the embryo was anesthetized with tricaine (MS-222, 0.02%, embryo buffer), a peptide was administered, and FITC-dextran (2,000 kDa, Sigma) was further injected. A blood vessel image was obtained with a Leica DM5000B system at 72 hpf. As a probe for whole mount in situ hybridization, digoxigenin (DIG)-labeled RNA prepared by a cad5 (NM_001003983) gene was used. Meanwhile, a peptide was injected into the 18-hpf embryo collected at 25 hpf, fixed with 4% paraformaldehyde, washed with PBS (in 0.1% Tween20), and hybridized with DIG-labeled riboprobes (hybridization buffer). Subsequently, the resulting product was reacted with an alkaline phosphatase (AP)-conjugated anti-DIG antibody. Following reaction with an AP staining solution, a staining status was observed and visualized under a microscope (Leica, MZ-16).

HUVECs [2] = assay: FACS analysis of FITC-RLYE binding to HUVECs; parameters: species or system human
Method: HUVECs were cultured in a 60-mm culture plate for 24 hours. The cells were isolated from the plate with 5 mM EDTA-containing phosphate-buffered saline (PBS), washed with PBS three times, and suspended in 2% FBS/0.1% bovine serum albumin-containing PBS. Afterward, before or after the reaction with FITC-conjugated RLYE (SEQ ID NO: 2) (15 nM), the cells were treated with VEGF (100 ng/ml), stored on ice for 30 minutes, fixed in 2% paraformaldehyde, and assessed with a fluorescence activated cell sorter (FACS Calibur, Becton Dickinson) by flow cytometry.

For `CC(C)C[C@H](NC(=O)[C@@H](N)CCCCN)C(=O)N[C@@H](Cc1ccc(O)cc1)C(=O)N[C@@H](CC(=O)O)C(=O)O` [KLYD, reference compound] (H-KLYD-OH; N-terminus and C-terminus assumed), the IC50 (HUVECs [1]) was 0.79 nM and the “inhibition of VEGF-induced HUVEC proliferation” value (HUVECs [1]) was “significantly inhibited”.

In the case of `CC(C)C[C@H](NC(=O)[C@@H](N)CCCCN)C(=O)N[C@@H](Cc1ccc(O)cc1)C(=O)N[C@@H](CCC(=O)O)C(=O)O` [KLYE] (H-KLYE-OH; N-terminus and C-terminus assumed), the IC50 (HUVECs [1]) is reported as 0.3 nM, the “inhibition of VEGF-induced HUVEC proliferation” value (HUVECs [1]) is reported as “effectively inhibited” and the “inhibition of VEGF-induced ERK phosphorylation” value (ERK) is reported as “more effectively inhibited”.

For `CC(C)C[C@H](NC(=O)[C@@H](N)CCCNC(=N)N)C(=O)N[C@@H](Cc1ccc(O)cc1)C(=O)N[C@@H](CC(=O)O)C(=O)O` [RLYD] (H-RLYD-OH; N-terminus and C-terminus assumed), the IC50 (HUVECs [1]) was 0.14 nM, the “inhibition of VEGF-induced HUVEC proliferation” value (HUVECs [1]) was “effectively inhibited” and the “inhibition of VEGF-induced ERK phosphorylation” value (ERK) was “more effectively inhibited”.

`CC(C)[C@H](NC(=O)[C@@H](N)CCCNC(=N)N)C(=O)N[C@@H](Cc1ccc(O)cc1)C(=O)N[C@@H](CCC(=O)O)C(=O)O` [RVYE] (H-RVYE-OH; N-terminus and C-terminus assumed) was tested, and the IC50 (HUVECs [1]) was 0.39 nM, the “inhibition of VEGF-induced HUVEC proliferation” value (HUVECs [1]) was “effectively inhibited” and the “inhibition of VEGF-induced ERK phosphorylation” value (ERK) was “more effectively inhibited”.

With “EYLR: scrambled peptide against RLYE, used as a control [reference compound]” the “inhibition of VEGF-induced HUVEC proliferation” value (HUVECs [1]) was “did not exhibit a significant inhibitory effect”, the “formation of intersegmental vessels (ISV)” value (zebrafish) was “did not affect the ISV formation” and the “formation of subintestinal vessels (SIV)” value (zebrafish) was “did not affect the SIV formation”.

“FITC-RLYE: FITC-conjugated RLYE (SEQ ID NO: 2) peptide used for FACS and confocal binding ({FITC}-RLYE)” was tested, and the “binding to HUVEC surface (FACS)” value (HUVECs [2]; VEGF-A-pretreated cells) was “did not bind” and the “binding to HUVEC surface (FACS)” value (HUVECs [2]; cells not treated with VEGF-A) was “bound to a cell surface”.

For “KIYD: synthesized tetrapeptide based on KLYD”, the “inhibition of VEGF-induced HUVEC proliferation” value (HUVECs [1]) was “inhibitory effect similar to the positive control”.

For “KLFD: synthesized tetrapeptide based on KLYD”, the “inhibition of VEGF-induced HUVEC proliferation” value (HUVECs [1]) was “inhibitory effect similar to the positive control”.

With “KLWD: synthesized tetrapeptide based on KLYD” the “inhibition of VEGF-induced HUVEC proliferation” value (HUVECs [1]) was “did not exhibit a significant inhibitory effect”.

For “RLME: synthesized tetrapeptide based on KLYD”, the “inhibition of VEGF-induced HUVEC proliferation” value (HUVECs [1]) was “did not exhibit a significant inhibitory effect”.
